Measurements as given in patent publication US10894817B2, “Fatty acid modified urocortin-2 analogs for the treatment of diabetes and chronic kidney disease” (priority 2016, dated 2021).
Values joined by “and” are separate entries in the source; they are usually repeats but may differ in a detail not shown here. Equal entries are not always repeated. Starred links: 1 amine or outer side, 2 acyl side, 3 side chain; linkers in the order of their positions; H or OH if unused. Non-standard residues stand in square brackets, D forms with d. Residues, ends and D or L forms follow the SMILES beside them. Groups on a side chain read outwards from the residue. *: point of attachment. C20 diacid = O=C(O)CCCCCCCCCCCCCCCCCCC(=O)*; C18 diacid = O=C(O)CCCCCCCCCCCCCCCCC(=O)*; γGlu = O=C(O)[C@H](CCC(=O)[*:2])N[*:1]; NMeI = CC[C@H](C)[C@H](NC)C(=O)O; AEEA = NCCOCCOCC(=O)O

Key:
human CRHR1 = target: T1, human CRHR1 (Homo sapiens, UniProt P34998); assay: human CRHR1 cell-based cAMP assay (Y79 cells); conditions: Y79 cells with endogenous human CRHR1, mean ± SEM of runs, read-out: hCRHR1 Average EC50
T1 construct: which expresses endogenous human CRHR1; host or cells: Y79 human retinoblastoma cells
T1 sequence (P34998 24-415): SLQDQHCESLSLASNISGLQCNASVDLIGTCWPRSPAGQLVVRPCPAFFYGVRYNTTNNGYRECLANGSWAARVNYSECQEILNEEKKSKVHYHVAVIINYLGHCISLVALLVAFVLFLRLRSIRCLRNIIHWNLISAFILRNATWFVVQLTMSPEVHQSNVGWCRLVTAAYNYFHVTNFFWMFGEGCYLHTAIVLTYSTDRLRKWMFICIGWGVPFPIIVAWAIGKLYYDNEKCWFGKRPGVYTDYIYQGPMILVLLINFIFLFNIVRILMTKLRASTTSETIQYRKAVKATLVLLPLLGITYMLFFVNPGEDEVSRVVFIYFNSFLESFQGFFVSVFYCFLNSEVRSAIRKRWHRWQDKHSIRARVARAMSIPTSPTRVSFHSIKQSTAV
Experimental: CRHR agonistic activity is measured in a cell-based cAMP assay. Serial dilutions of the test peptides are made in assay buffer containing Hank's Balanced Salt Solution (HBSS, without phenol red) supplemented with 20 mM HEPES and 0.05% lactalbumin enzymatic hydrolysate (LAH) (“assay buffer”). The highest concentration that is used starts from 1 μM in the human CRHR2b, whereas 100 μM starting concentration is used in the human CRHR1 assay. A one to three dilution of the test peptides is used in both assays.
The human Retinoblastoma cell line Y79 (ATCC #HTB-18), which expresses endogenous human CRHR1, is used in the human CRHR1 assay. The cells are grown in RPMI 1640 (Hyclone, #SH30255) containing 20% fetal bovine serum and 10 mM HEPES, in suspension culture. Cells are centrifuged to remove the culture media and washed once in HBSS supplemented with 20 mM HEPES. The cells are resuspended in the assay buffer and 20,000 cells are used per treatment in the human CRHR1 assay.
The cells are dispensed into Costar 96-well black polystyrene half area EIA/RIA plates (Corning Incorporated, Corning, N.Y.) followed by the addition of the diluted peptides, each at a volume of 20 μL. The agonist induced cAMP levels are detected using a HTRF cAMP Dynamic 2 kit (CisBio, Bedford, Mass.). After incubation at 37° C. for 30 min, the assay is stopped by cell lysis via the addition of 20 μL of d2-labeled cAMP and followed by 20 μL of cryptate-labeled anti-cAMP antibody, as described by the manufacturer. Cellular cAMP (as a result of agonist stimulation) competes with the d2-labeled cAMP for binding to the antibody. HTRF detection is performed on an Envision plate reader (Perkin Elmer Life and Analytical Sciences, Waltham, Mass.) by measuring ratiometric emission at 620 and 665 nm after excitation at 320 nm.
The data are converted to picomoles of cAMP using a standard curve obtained from the same assay performed with varying concentrations of unlabeled cAMP. Percent of the maximum activation of the cells is calculated using converted picomole cAMP data by comparing to the amount of cAMP produced by 1 μM human UCN2 for the human CRHR2b or 1 μM human UCN1 for the human CRHR1 assay. The data are analyzed using a Curve Fitting Tool to calculate ED50. Numeric values shown below in Table 1 represent the mean of multiple runs (number of runs shown in parentheses) following the mean value±SEM.

[1] = Pharmacokinetics, single intravenous dose, monkeys; conditions: for clearance: in vivo, CL
Experimental: Plasma concentrations of compounds were determined by LC/MS methods. Each method measured the intact compound; peptide plus linked time extension. […] Two distinct layers were formed upon centrifugation with the compound and the IS located in the supernatant layer. An aliquot of the supernatant (80 μl) was transferred to a Thermo Protein Precipitation Plate with water (150 μl) and formic acid (25 μl) followed by mixing. A final 31% acetonitrile in 10% formic acid sample (10 μl) was loaded onto a Supelco Analytical Discovery BIO Wide Pore C5-3 column (5 cm×1 mm, 3 μm). The column effluent was directed into a Thermo Q-Exactive mass spectrometer for detection and quantitation.
(§1) Male Cynomolgus monkeys were administered a single subcutaneous dose or intravenous dose (96.4 nmol/kg) of a compound described herein in 20 mM Tris-HCl Buffer (pH 7) at a volume of 1 mL/kg. Blood was collected from each animal at 2, 6, 24, 48, 72, 96, 168, 240, 336, 408, and 504 hours postdose for pharmacokinetic characterization.

in vivo [2] = conditions: male, cynomolgus monkey, sc, 50 nmol/kg
Experimental: (§2) Plasma concentrations of compounds were determined by LC/MS methods. Each method measured the intact compound; peptide plus linked time extension. For each assay, the compound and an analog, used as an internal standard (IS), were extracted from 100% mouse, rat or monkey plasma (25 μl) using acetonitrile. Two distinct layers were formed upon centrifugation with the compound and the IS located in the supernatant layer. An aliquot of the supernatant (80 μl) was transferred to a Thermo Protein Precipitation Plate with water (150 μl) and formic acid (25 μl) followed by mixing. A final 31% acetonitrile in 10% formic acid sample (10 μl) was loaded onto a Supelco Analytical Discovery BIO Wide Pore C5-3 column (5 cm×1 mm, 3 μm). The column effluent was directed into a Thermo Q-Exactive mass spectrometer for detection and quantitation.
as §1
Male Cynomolgus monkeys were also administered a single subcutaneous dose (50 nmol/kg) of a compound described herein in 20 mM Tris-HCl Buffer (pH 8) at a volume of 0.26 mL/kg. Blood was collected from each animal at 3, 6, 12, 24, 48, 72, 96, 120, 168, 192, 240, 336, 408, and 504 hours postdose for pharmacokinetic characterization.

in vivo [3] = conditions: male, Sprague Dawley, rat, sc; for half-life: T1/2
Experimental: as §2
Male Sprague Dawley rats were administered a single subcutaneous dose (50 or 150 nmol/kg) of a compound described herein in 20 mM Tris-HCl Tris Buffer (pH 8) at a volume of 0.26 or 0.77 mL/kg.

[4] = male Cynomolgus monkeys, single 96.4 nmol/kg i.v., individual animal
[5] = male, cynomolgus monkey, plasma, iv, 96.4 nmol/kg

SMILES	EC50 (human CRHR1)	clearance ([1]; cynomolgus monkey, iv, 96.4 nmol/kg, male Cynomolgus monkeys, single 96.4 nmol/kg i.v., Mean)	clearance ([1]; cynomolgus monkey, iv, 96.4 nmol/kg, male Cynomolgus monkeys, single 96.4 nmol/kg i.v., individual animal)	C0 (estimated plasma concentration at time zero) [1, 4]	CL [1, 4]	AUC(0-inf) [1, 5]	C0 [1, 5]	CL/F (in vivo [2]; CL/F)	half-life (in vivo [2]; T1/2)	CL/F (in vivo [3]; 50 nmol/kg)	half-life (in vivo [3]; 50 nmol/kg)	CL/F (in vivo [3]; 150 nmol/kg)	half-life (in vivo [3]; 150 nmol/kg)
CC[C@H](C)[C@H](NC(C)=O)C(=O)N[C@H](C(=O)N[C@@H](CC(C)C)C(=O)N[C@@H](CO)C(=O)N[C@@H](CC(C)C)C(=O)N[C@@H](CC(=O)O)C(=O)N[C@H](C(=O)N1CCC[C@H]1C(=O)N[C@H](C(=O)NCC(=O)N[C@@H](CC(C)C)C(=O)N[C@@H](CC(C)C)C(=O)N[C@@H](CCC(N)=O)C(=O)N[C@H](C(=O)N[C@@H](CC(C)C)C(=O)N[C@@H](CC(C)C)C(=O)N[C@@H](CCC(=O)O)C(=O)N[C@@H](CCC(N)=O)C(=O)N[C@@H](CCC(=O)O)C(=O)N[C@@H](CCCCN)C(=O)N[C@@H](CCC(N)=O)C(=O)N[C@@H](CCC(=O)O)C(=O)N[C@@H](CCCCN)C(=O)N[C@@H](CCC(=O)O)C(=O)N[C@@H](CCCCN)C(=O)N[C@@H](CCC(N)=O)C(=O)N[C@@H](CCC(N)=O)C(=O)N[C@@H](C)C(=O)N[C@@H](CCCCNC(=O)COCCOCCNC(=O)COCCOCCNC(=O)CC[C@H](NC(=O)CC[C@H](NC(=O)CCCCCCCCCCCCCCCCCCC(=O)O)C(=O)O)C(=O)O)C(=O)N[C@H](C(=O)N[C@@H](CC(N)=O)C(=O)N[C@@H](C)C(=O)N[C@@H](CCC(N)=O)C(=O)N[C@H](C(=O)N[C@@H](CC(C)C)C(=O)N[C@@H](C)C(=O)N[C@@H](CCC(N)=O)C(=O)N[C@H](C(N)=O)C(C)C)[C@@H](C)CC)[C@@H](C)O)[C@@H](C)CC)[C@@H](C)CC)C(C)C)C(C)C [Example 2] (Ac-IVLSLDVPIGLLQILLEQEKQEKEKQQAK([AEEA-AEEA-γGlu-γGlu-C20 diacid])TNAQILAQV-NH2)	> 10 µM	7.68 mL/day/kg	6.72 mL/day/kg	3.267 µM and 3.059 µM	8.64 mL/day/kg	306 µM·h	3.16 µM	–	–	–	–	–	–
CC[C@H](C)[C@H](NC)C(=O)N[C@H](C(=O)N[C@@H](CC(C)C)C(=O)N[C@@H](CO)C(=O)N[C@@H](CC(C)C)C(=O)N[C@@H](CC(=O)O)C(=O)N[C@H](C(=O)N1CCC[C@H]1C(=O)N[C@H](C(=O)NCC(=O)N[C@@H](CC(C)C)C(=O)N[C@@H](CC(C)C)C(=O)N[C@@H](CCC(N)=O)C(=O)N[C@H](C(=O)N[C@@H](CC(C)C)C(=O)N[C@@H](CC(C)C)C(=O)N[C@@H](CCC(=O)O)C(=O)N[C@@H](CCC(N)=O)C(=O)N[C@@H](CCC(=O)O)C(=O)N[C@@H](CCCCN)C(=O)N[C@@H](CCC(N)=O)C(=O)N[C@@H](CCC(=O)O)C(=O)N[C@@H](CCCCN)C(=O)N[C@@H](CCC(=O)O)C(=O)N[C@@H](CCCCN)C(=O)N[C@@H](CCC(N)=O)C(=O)N[C@@H](CCC(N)=O)C(=O)N[C@@H](C)C(=O)N[C@@H](CCCCNC(=O)COCCOCCNC(=O)COCCOCCNC(=O)CC[C@H](NC(=O)CC[C@H](NC(=O)CCCCCCCCCCCCCCCCC(=O)O)C(=O)O)C(=O)O)C(=O)N[C@H](C(=O)N[C@@H](CC(N)=O)C(=O)N[C@@H](C)C(=O)N[C@@H](CCC(N)=O)C(=O)N[C@H](C(=O)N[C@@H](CC(C)C)C(=O)N[C@@H](C)C(=O)N[C@@H](CCC(N)=O)C(=O)N[C@H](C(N)=O)C(C)C)[C@@H](C)CC)[C@@H](C)O)[C@@H](C)CC)[C@@H](C)CC)C(C)C)C(C)C [Example 3] (H-[NMeI]VLSLDVPIGLLQILLEQEKQEKEKQQAK([AEEA-AEEA-γGlu-γGlu-C18 diacid])TNAQILAQV-NH2)	> 100 µM	–	–	–	–	–	–	–	–	–	–	–	–
CC[C@H](C)[C@H](NC)C(=O)N[C@H](C(=O)N[C@@H](CC(C)C)C(=O)N[C@@H](CO)C(=O)N[C@@H](CC(C)C)C(=O)N[C@@H](CC(=O)O)C(=O)N[C@H](C(=O)N1CCC[C@H]1C(=O)N[C@H](C(=O)NCC(=O)N[C@@H](CC(C)C)C(=O)N[C@@H](CC(C)C)C(=O)N[C@@H](CCC(N)=O)C(=O)N[C@H](C(=O)N[C@@H](CC(C)C)C(=O)N[C@@H](CC(C)C)C(=O)N[C@@H](CCC(=O)O)C(=O)N[C@@H](CCC(N)=O)C(=O)N[C@@H](CCC(=O)O)C(=O)N[C@@H](CCCCN)C(=O)N[C@@H](CCC(N)=O)C(=O)N[C@@H](CCC(=O)O)C(=O)N[C@@H](CCCCN)C(=O)N[C@@H](CCC(=O)O)C(=O)N[C@@H](CCCCN)C(=O)N[C@@H](CCC(N)=O)C(=O)N[C@@H](CCC(N)=O)C(=O)N[C@@H](C)C(=O)N[C@@H](CCCCNC(=O)COCCOCCNC(=O)COCCOCCNC(=O)CC[C@H](NC(=O)CC[C@H](NC(=O)CCCCCCCCCCCCCCCCCCC(=O)O)C(=O)O)C(=O)O)C(=O)N[C@H](C(=O)N[C@@H](CC(N)=O)C(=O)N[C@@H](C)C(=O)N[C@@H](CCC(N)=O)C(=O)N[C@H](C(=O)N[C@@H](CC(C)C)C(=O)N[C@@H](C)C(=O)N[C@@H](CCC(N)=O)C(=O)N[C@H](C(N)=O)C(C)C)[C@@H](C)CC)[C@@H](C)O)[C@@H](C)CC)[C@@H](C)CC)C(C)C)C(C)C [Example 4] (H-[NMeI]VLSLDVPIGLLQILLEQEKQEKEKQQAK([AEEA-AEEA-γGlu-γGlu-C20 diacid])TNAQILAQV-NH2)	> 100 µM	–	–	–	–	–	–	23.3 mL/day/kg	79 h	154 mL/day/kg	19 h	163 mL/day/kg	21 h
